SMILES strings stand for the structures. pIC50: −log10 of the molar value.

The assay is described as follows: Inhibition of bakers yeast alpha-glucosidase by spectrophotometry. Further details: species or system Saccharomyces cerevisiae.
The pIC50 is −log10 of the IC50, conventionally taken in molar units. A high value points to a small IC50. Take `C=CC(C)(C)c1c(O)cc(O)c2c(=O)c3c(CC=C(C)C)c(O)c(O)cc3oc12` [CUDRATRICUSXANTHONE A]: the pIC50 was 4.42.

Turning to `CC(C)=CCc1c(O)c(O)cc2c(=O)c3c(O)c4c(cc3oc12)OC(C)C4(C)C` (stereo not drawn) [CUDRAXANTHONE M], the pIC50 was < 4.00.

Regarding `C=CC(C)(C)c1c(O)cc(O)c2c(=O)c3cc(O)c4c(c3oc12)C=CC(C)(C)O4`, the negative logarithm of the IC50 (pIC50) was 4.60.

`C=CC(C)(C)c1c(O)cc2oc3c(CC=C(C)C)c(O)c(O)cc3c(=O)c2c1O` [CUDRAXANTHONE L] gave a pIC50 of 4.28. Compared with the last molecule, the pIC50 is 0.32 log units lower.

Turning to `C=CC(C)(C)c1c(OC)cc(O)c2c(=O)c3c(CC=C(C)C)c(O)c(O)cc3oc12` [CUDRAXANTHONE D], the pIC50 is 4.79. Against the preceding molecule, the pIC50 is 0.51 log units higher.

`C=CC(C)(C)c1c(O)c(CC=C(C)C)c2oc3cc(O)c(O)cc3c(=O)c2c1O` [MACLURAXANTHONE B] had a pIC50 of 4.42. Compared with the last molecule, the pIC50 is 0.37 log units lower.

The molecule `C=CC(C)(C)c1c(O)cc2oc3cc(O)c(O)c(CC=C(C)C)c3c(=O)c2c1O` gave a pIC50 of 4.45.

In turn, `CC(C)=CCc1c2c(c(O)c3c(=O)c4cc(O)c(O)cc4oc13)C(C)(C)C(C)O2` (stereo not drawn) had a pIC50 of 4.49. This pIC50 and that of the molecule before are within 0.2 log units of each other.

Values taken from ChEMBL document CHEMBL1140575, “Xanthones from Cudrania tricuspidata displaying potent alpha-glucosidase inhibition” (Bioorg Med Chem Lett, 2007).
